Experimental data taken from paper PMC12396409, “Screening and hit evaluation of a microbial metabolite library against the pathogenic Plasmodium falciparum and Toxoplasma gondii parasites” (International Journal for Parasitology: Drugs and Drug …, 2025).
Where two headings read alike, the source gives them in different places.

Tests used:
[1] = test system: P. falciparum 3D7 parasites; experiment: P. falciparum growth inhibition assay, 1-cycle (72 h treatment), SYBR DNA staining (library screen at 2 μg/mL and dose-response); format: cell-based, Plasmodium falciparum; conditions: for activity at 2 µg/mL: Plasmodium falciparum, 3D7
[2] = test system: P. falciparum 3D7 parasites; experiment: P. falciparum growth inhibition assay, 2-cycle (120 h treatment), delayed-death screen and dose-response; format: cell-based, Plasmodium falciparum; conditions: for activity at 2 µg/mL: Plasmodium falciparum, 3D7
[3] = test system: T. gondii RH strain (RH-Tub-eYFP) tachyzoites; experiment: microbe, parasite or virus in culture; format: cell-based, Toxoplasma gondii; conditions: for percent parasite growth at 2 µg/mL: Toxoplasma gondii
[4] = library screen at 2 μg/mL, 72 h, % growth, replicate 1
[5] = library screen at 2 μg/mL, 72 h, % growth, replicate 2
[6] = library screen at 2 μg/mL, 120 h, % growth, replicate 1
[7] = library screen at 2 μg/mL, 120 h, % growth, replicate 2
[8] = P. falciparum, 72 h, parasite screen 2 μg/mL, % growth, replicate 1, read-out: Pf_72h_%Growth_Rep1
[9] = P. falciparum, 72 h, parasite screen 2 μg/mL, % growth, replicate 2, read-out: Pf_72h_%Growth_Rep2
[10] = P. falciparum, 120 h, parasite screen 2 μg/mL, % growth, replicate 1, read-out: Pf_120h_%Growth_Rep1
[11] = P. falciparum, 120 h, parasite screen 2 μg/mL, % growth, replicate 2, read-out: Pf_120h_%Growth_Rep2
[12] = 72 h, T. gondii, 72 h, parasite screen 2 μg/mL, % growth, replicate 1, read-out: Tg_72h_%Growth_Rep1
[13] = 72 h, T. gondii, 72 h, parasite screen 2 μg/mL, % growth, replicate 2, read-out: Tg_72h_%Growth_Rep2
[14] = P. falciparum 3D7, 72 h, parasite screen at 2 μg/mL, % growth, replicate 1
[15] = P. falciparum 3D7, 72 h, parasite screen at 2 μg/mL, % growth, replicate 2
[16] = P. falciparum 3D7, 120 h, parasite screen at 2 μg/mL, % growth, replicate 1
[17] = P. falciparum 3D7, 120 h, parasite screen at 2 μg/mL, % growth, replicate 2
[18] = T. gondii, 72 h, parasite screen at 2 μg/mL, % growth, replicate 1
[19] = T. gondii, 72 h, parasite screen at 2 μg/mL, % growth, replicate 2

SMILES: CCc1c(Cl)c(O)c(Cl)c(O)c1C(=O)O[C@H]1[C@H](O)[C@H](OC)[C@H](OC/C2=C\C=C\C[C@H](O)/C(C)=C/[C@H](CC)[C@@H](O[C@@H]3OC(C)(C)[C@@H](OC(=O)C(C)C)[C@H](O)[C@@H]3O)/C(C)=C/C(C)=C/C[C@@H]([C@@H](C)O)OC2=O)O[C@@H]1C [fidaxomicin, reference compound]
- activity at 2 µg/mL ([1]; library screen at 2 μg/mL, 72 h, % growth, replicate 1, read-out: Pf_72h_%Growth_Rep1): 3.04%
- activity at 2 µg/mL ([1]; library screen at 2 μg/mL, 72 h, % growth, replicate 2, read-out: Pf_72h_%Growth_Rep2): -1.42%
- selectivity for P. falciparum in the screens ([1]; active against the parasite at 2 μg/mL, no anti-tumour (NS-1) or cytotoxic (fibroblast) activity at 5 μg/mL): selective for P. falciparum
- activity at 2 µg/mL ([2]; library screen at 2 μg/mL, 120 h, % growth, replicate 1, read-out: Pf_120h_%Growth_Rep1): 13.8%
- activity at 2 µg/mL ([2]; library screen at 2 μg/mL, 120 h, % growth, replicate 2, read-out: Pf_120h_%Growth_Rep2): -3.62%
- percent parasite growth at 2 µg/mL ([3]; 72 h, library screen at 2 μg/mL, 72 h, % growth, replicate 1, read-out: Tg_72h_%Growth_Rep1): 85.9%
- percent parasite growth at 2 µg/mL ([3]; 72 h, library screen at 2 μg/mL, 72 h, % growth, replicate 2, read-out: Tg_72h_%Growth_Rep2): 92.4%

SMILES: CN1C(=O)c2ccccc2-n2c(nc3ccccc3c2=O)[C@@]12O[C@H]2c1ccccc1 [Benzomalvin C]
- Pf_72h_%Growth_Rep1 [1, 4]: 80.29%
- Pf_72h_%Growth_Rep2 [1, 5]: 84.20%
- Pf_120h_%Growth_Rep1 [2, 6]: 69.94%
- Pf_120h_%Growth_Rep2 [2, 7]: 71.59%
- Tg_72h_%Growth_Rep1 [3, 4]: 89.14%
- Tg_72h_%Growth_Rep2 [3, 5]: 100.15%

SMILES: CN(C)[C@H]1C(O)=C(C(N)=O)C(=O)[C@@]2(O)C(O)=C3C(=O)c4c(O)cccc4[C@@](C)(O)[C@H]3[C@H](O)[C@@H]12 [Epioxytetracycline]
- Pf_72h_%Growth_Rep1 [1, 4]: 86.72%
- Pf_72h_%Growth_Rep2 [1, 5]: 78.69%
- Pf_120h_%Growth_Rep1 [2, 6]: 99.19%
- Pf_120h_%Growth_Rep2 [2, 7]: 96.08%
- Tg_72h_%Growth_Rep1 [3, 4]: 152.95%
- Tg_72h_%Growth_Rep2 [3, 5]: 107.04%

SMILES: C/C(=C\C(=O)OCCCCCCCCC(=O)O)C[C@@H]1OC[C@H](C[C@@H]2O[C@H]2[C@@H](C)[C@H](C)O)[C@@H](O)[C@H]1O [Pseudomonic acid]
- activity at 2 µg/mL [1, 8]: 29.1%
- activity at 2 µg/mL [1, 9]: 6.31%
- activity at 2 µg/mL [2, 10]: 0.62%
- activity at 2 µg/mL [2, 11]: 28.1%
- percent parasite growth at 2 µg/mL [3, 12]: 70.8%
- percent parasite growth at 2 µg/mL [3, 13]: 74.5%

SMILES: COc1cc2c(c3oc(=O)c4c(c13)CCOC4=O)C1C=COC1O2 (stereo not shown) [Aflatoxin G1]
- Pf_72h_%Growth_Rep1 [1]: 72.54%
- Pf_72h_%Growth_Rep2 [1]: 87.39%
- Pf_120h_%Growth_Rep1 [2]: 145.89%
- Pf_120h_%Growth_Rep2 [2]: 92.80%
- Tg_72h_%Growth_Rep1 [3]: 81.49%
- Tg_72h_%Growth_Rep2 [3]: 92.08%

SMILES: C[C@H]1CCC[C@@H](O)CCCCCc2cc(O)cc(O)c2C(=O)O1 [Zearalanol, beta-]
- Pf_72h_%Growth_Rep1 ([1]; P. falciparum, 72 h, screen at 2 μg/mL, replicate 1): 81.97%
- Pf_72h_%Growth_Rep2 ([1]; P. falciparum, 72 h, screen at 2 μg/mL, replicate 2): 86.14%
- Pf_120h_%Growth_Rep1 ([2]; P. falciparum, 120 h, screen at 2 μg/mL, replicate 1): 90.97%
- Pf_120h_%Growth_Rep2 ([2]; P. falciparum, 120 h, screen at 2 μg/mL, replicate 2): 85.38%
- Tg_72h_%Growth_Rep1 ([3]; T. gondii, 72 h, screen at 2 μg/mL, replicate 1): 150.26%
- Tg_72h_%Growth_Rep2 ([3]; T. gondii, 72 h, screen at 2 μg/mL, replicate 2): 92.47%

SMILES: CCC(C)C1OC2(CCC1C)CC1CC(CC=C(C)C(O)C(C)C=CC=C3COC4C(O)C(C)=CC(C(=O)O1)C34O)O2 (stereo not shown) [BIA-I1151]
- Pf_72h_%Growth_Rep1 ([1]; P. falciparum 3D7, 72 h, library screen at 2 μg/mL, % growth, replicate 1): 82.86%
- Pf_72h_%Growth_Rep2 ([1]; P. falciparum 3D7, 72 h, library screen at 2 μg/mL, % growth, replicate 2): 77.78%
- Pf_120h_%Growth_Rep1 ([2]; P. falciparum 3D7, 120 h, library screen at 2 μg/mL, % growth, replicate 1): 87.69%
- Pf_120h_%Growth_Rep2 ([2]; P. falciparum 3D7, 120 h, library screen at 2 μg/mL, % growth, replicate 2): 91.70%
- Tg_72h_%Growth_Rep1 ([3]; T. gondii RH, 72 h, library screen at 2 μg/mL, % growth, replicate 1): 121.58%
- Tg_72h_%Growth_Rep2 ([3]; T. gondii RH, 72 h, library screen at 2 μg/mL, % growth, replicate 2): 95.56%

SMILES: CC1=CC[C@H]2C(C)(C)CCC[C@]2(C)[C@H]1CO [Drimenol]
- Pf_72h_%Growth_Rep1 [1, 4]: 88.25%
- Pf_72h_%Growth_Rep2 [1, 5]: 89.37%
- Pf_120h_%Growth_Rep1 [2, 6]: 92.79%
- Pf_120h_%Growth_Rep2 [2, 7]: 93.83%
- Tg_72h_%Growth_Rep1 [3, 4]: 153.93%
- Tg_72h_%Growth_Rep2 [3, 5]: 98.02%

SMILES: CCC1C=C(C)CC(C)CC(OC)C2OC(O)(C(=O)C(=O)N3CCCCC3C(=O)OC(C(C)=CC3CCC(Cl)C(OC)C3)C(C)C(O)CC1=O)C(C)CC2OC (stereo not shown) [BIA-P1385]
- Pf_72h_%Growth_Rep1 [1, 14]: 6.43%
- Pf_72h_%Growth_Rep2 [1, 15]: 7.66%
- Pf_120h_%Growth_Rep1 [2, 16]: 11.40%
- Pf_120h_%Growth_Rep2 [2, 17]: 13.77%
- Tg_72h_%Growth_Rep1 [3, 18]: 65.99%
- Tg_72h_%Growth_Rep2 [3, 19]: 84.21%

SMILES: CC(=O)c1c(O)c(C)c(O)c2c1OC1=CC(=O)C(C(C)=O)C(=O)C12C (stereo not shown) [Usnic acid]
- activity at 2 µg/mL ([1]; P. falciparum, 72 h, screen at 2 μg/mL, replicate 1, read-out: Pf_72h_%Growth_Rep1): 82.8%
- activity at 2 µg/mL ([1]; P. falciparum, 72 h, screen at 2 μg/mL, replicate 2, read-out: Pf_72h_%Growth_Rep2): 126%
- activity at 2 µg/mL ([2]; P. falciparum, 120 h, screen at 2 μg/mL, replicate 1, read-out: Pf_120h_%Growth_Rep1): 101%
- activity at 2 µg/mL ([2]; P. falciparum, 120 h, screen at 2 μg/mL, replicate 2, read-out: Pf_120h_%Growth_Rep2): 102%
- percent parasite growth at 2 µg/mL ([3]; 72 h, T. gondii, 72 h, screen at 2 μg/mL, replicate 1, read-out: Tg_72h_%Growth_Rep1): 115%
- percent parasite growth at 2 µg/mL ([3]; 72 h, T. gondii, 72 h, screen at 2 μg/mL, replicate 2, read-out: Tg_72h_%Growth_Rep2): 87.6%

SMILES: CCC[C@@H]1C[C@@H](C(=O)N[C@@H]([C@H]2O[C@H](SC)[C@H](OP(=O)(O)O)[C@@H](O)[C@H]2O)[C@H](C)Cl)N(C)C1 [Clindamycin 2-phosphate, reference compound]
- 1) Growth (%) at 72 h [1]: 67.91%
- Pf_72h_%Growth_Rep1 [1]: 73.78%
- Pf_72h_%Growth_Rep2 [1]: 62.04%
- 2) Growth (%) at 120 h [2]: 9.80%
- 3) Fold change (72 h/120 h) [2]: 6.9
- Pf_120h_%Growth_Rep1 [2]: 15.54%
- Pf_120h_%Growth_Rep2 [2]: 4.05%
- Tg_72h_%Growth_Rep1 [3]: 25.11%
- Tg_72h_%Growth_Rep2 [3]: 20.67%

SMILES: CC1=C[C@H]2O[C@@H]3[C@H](O)C[C@](C)([C@@]2(CO)[C@H](O)C1=O)[C@]31CO1 [Deoxynivalenol]
- Pf_72h_%Growth_Rep1 [1, 4]: -0.53%
- Pf_72h_%Growth_Rep2 [1, 5]: -5.17%
- Pf_120h_%Growth_Rep1 [2, 6]: 19.31%
- Pf_120h_%Growth_Rep2 [2, 7]: 5.93%
- Tg_72h_%Growth_Rep1 [3, 4]: -0.04%
- Tg_72h_%Growth_Rep2 [3, 5]: 0.56%

SMILES: COc1cc(C)c2c(c1C=O)Oc1c(c(C)c(O)c3c1C(O)OC3=O)OC2=O (stereo not shown) [Stictic acid]
- activity at 2 µg/mL [1, 8]: 81.8%
- activity at 2 µg/mL [1, 9]: 80.1%
- activity at 2 µg/mL [2, 10]: 88.2%
- activity at 2 µg/mL [2, 11]: 87.2%
- percent parasite growth at 2 µg/mL [3, 12]: 115%
- percent parasite growth at 2 µg/mL [3, 13]: 87%

SMILES: CC1=C\[C@@H](O)CC(=O)Cc2nc(co2)C(=O)N2CCC=C2C(=O)O[C@H](C(C)C)[C@H](C)/C=C/C(=O)NC\C=C\1 [BIA-O1131]
- Pf_72h_%Growth_Rep1 [1, 14]: 59.89%
- Pf_72h_%Growth_Rep2 [1, 15]: 79.42%
- Pf_120h_%Growth_Rep1 [2, 16]: 16.87%
- Pf_120h_%Growth_Rep2 [2, 17]: 26.94%
- Tg_72h_%Growth_Rep1 [3, 18]: 125.71%
- Tg_72h_%Growth_Rep2 [3, 19]: 88.67%

SMILES: O=c1cc([O-])c1=O.[Na+] [BIA-M1269]
- Pf_72h_%Growth_Rep1 [1, 14]: 85.51%
- Pf_72h_%Growth_Rep2 [1, 15]: 86.48%
- Pf_120h_%Growth_Rep1 [2, 16]: 98.81%
- Pf_120h_%Growth_Rep2 [2, 17]: 138.01%
- Tg_72h_%Growth_Rep1 [3, 18]: 105.46%
- Tg_72h_%Growth_Rep2 [3, 19]: 100.53%
